Assay results as given in ChEMBL document CHEMBL5214906, “Novel Antiplasmodial Compounds Leveraged with Multistage Potency against the Parasite Plasmodium falciparum: In Vitro and In Vivo Evaluations and Pharmacokinetic Studies” (J Med Chem, 2021).
Active and inactive are the calls of the source. No cut-off for these calls is given here.

Assays:
[1] = Cytotoxicity against human HepG2 cells assessed as reduction in cell viability incubated for 48 hrs by MTT assay; type: toxicity, cell-based; settings: read-out: TC50
Plasmodium falciparum [2] = assay: Inhibition of Plasmodium falciparum plasmepsin X […] at 1 uM using DABCYL-G-PSFVEAPVRGG-EDANS as substrate by fluorescence based assay relative to control
Plasmodium falciparum [3] = assay: Antiplasmodial activity against Plasmodium falciparum 3D7 infected in human red blood cells assessed as inhibition of parasitemia incubated for 48 hrs by giemsa staining based light microscopic analysis; type: functional, organism-based, Red blood cell; settings: 3D7, Erythrocyte
[4] = Therapeutic index, ratio of TC50 for cytotoxicity against human HepG2 cells to IC50 for antiplasmodial activity against Plasmodium falciparum 3D7 infected in human red blood cells; type: toxicity, cell-based; settings: read-out: TI
Plasmodium berghei [5] = assay: Antiplasmodial activity against firefly luciferase-expressing Plasmodium berghei liver stage infected in human Huh-7 cells assessed as inhibition of parasite growth preincubated with cells for 1 hrs followed by parasite infection and […] by bioluminescence assay; type: functional, organism-based
Plasmodium falciparum [6] = assay: Resistance index, ratio of IC50 for antiplasmodial activity against chloroquine-resistant Plasmodium falciparum RKL-9 to IC50 for antiplasmodial activity against Plasmodium falciparum 3D7; type: functional
Plasmodium falciparum [7] = assay: Induction of mitochondrial membrane loss in Plasmodium falciparum 3D7 assessed as reduction in red-green ratio at IC50 concentration incubated for 3 hrs by JC-1 staining based spectrofluorometric analysis; type: functional
Plasmodium falciparum [8] = assay: Antiplasmodial activity against chloroquine resistant Plasmodium falciparum RKL-9 infected in human erythrocytes assessed as inhibition of parasitemia by SYBR green-I fluorescence based spectrofluorometric analysis; type: functional, organism-based; settings: RKL-9, Erythrocyte
Plasmodium falciparum [9] = assay: Antiplasmodial activity against Plasmodium falciparum 3D7 infected in human erythrocytes assessed as delay in maturation of rings at 1 to 10 uM measured for 56 hrs by giemsa staining based microscopic analysis; type: functional, organism-based; settings: Erythrocyte, dose 1-10 µM
Plasmodium falciparum [10] = assay: Antiplasmodial activity against Plasmodium falciparum 3D7 infected in human erythrocytes assessed as pyknotic trophozoites development at 1 to 10 uM measured for 56 hrs by giemsa staining based microscopic analysis; type: functional, organism-based; settings: Erythrocyte, dose 1-10 µM
Erythrocyte = assay: Hemolytic activity against human red blood cells upto 1600 uM incubated for 1 hrs by hemolysis assay; type: toxicity, cell-based
Plasmodium berghei [11] = assay: In vivo antimalarial activity against Plasmodium berghei ANKA strain infected in BALB/c mouse assessed as increase in mean survival time at 50 mg/kg, ip administered for 4 days and measured upto 30 days (reference value: 13 days); type: functional; settings: time <= 30 day
Plasmodium berghei [12] = assay: In vivo antimalarial activity against Plasmodium berghei ANKA infected in BALB/c mouse assessed as reduction in parasitemia at 50 mg/kg, ip administered for 4 consecutive days and measured on day 8 post-infection by geimsa staining based microscopic analysis relative to control; type: functional; set-up: scale not given: the % may be the effect or the level left; settings: time 8 day
Plasmodium falciparum [13] = assay: Antiplasmodial activity against Plasmodium falciparum 3D7 infected in human erythrocytes assessed as accumulation of parasite growth at late trophozoite stage at 1 to 10 uM measured after 56 hrs post-treatment by giemsa staining based microscopic analysis; type: functional, organism-based; settings: Erythrocyte, dose 1-10 µM
Plasmodium falciparum [14] = assay: Antiplasmodial activity against Plasmodium falciparum 3D7 infected in human erythrocytes assessed as transition from ring to trophozoite at 1 to 10 uM measured for 56 hrs by giemsa staining based microscopic analysis; type: functional, organism-based; settings: Erythrocyte, dose 1-10 µM
[15] = Inhibition of Plasmodium falciparum Plasmepsin X assessed as inhibition constant using DABCYL-G-PSFVEAPVRGG-EDANS as substrate by fluorescence based assay relative to control
Plasmodium berghei [16] = assay: In vivo antimalarial activity against Plasmodium berghei ANKA strain infected in C57BL/6 mouse assessed as increase in mean survival time at 30 mg/kg, ip administered for 4 days and measured upto 30 days (reference value: 13 days); type: functional; settings: time <= 30 day

Compound | inhibition (Plasmodium falciparum [2]) [%] | IC50 (Plasmodium falciparum [3]) [µM] | CC50 at 48 h [1] [µM] | selectivity ratio [4] | Ratio IC50 (Plasmodium falciparum [6]) | Ratio (Plasmodium falciparum [7]) | IC50 (Plasmodium falciparum [8]) [µM] | Activity (Erythrocyte) | also measured
CN1CCN(c2ccc(C(=O)N[C@@H](Cc3ccccc3)[C@@H](O)CN3CCN(Cc4ccccc4)CC3)cc2)CC1 | 34 | 1 | 189 | 189 | – | – | – | – | –
O=C(N[C@@H](Cc1ccccc1)[C@@H](O)CN1CCN(Cc2ccccc2)CC1)c1ccc(F)cc1 | 0.92 | 0.41 | 267 | 636 | 1.73 | 3.73 | 0.72 | – | Activity (Plasmodium falciparum [9]): Active; Activity (Plasmodium falciparum [10]): Active
O=C(N[C@@H](Cc1ccccc1)[C@@H](O)CN1CCN(Cc2ccccc2)CC1)c1cnc2ccccc2c1 | 11.7 | 0.25 | 100 | 400 | – | – | – | Non-Toxic | –
O=C(N[C@@H](Cc1ccccc1)[C@@H](O)CN1CCN(Cc2ccccc2)CC1)c1cnccn1 | 21 | 1.26 | 1000 | 791 | 1 | 4.07 | 1.26 | Non-Toxic | –
CCC(C(=O)N[C@@H](Cc1ccccc1)[C@@H](O)CN1CCN(Cc2ccccc2)CC1)c1ccccc1 (stereo not given in full) | 15.5 | 0.95 | 1350 | 1420 | – | – | – | – | –
O=C(N[C@@H](Cc1ccccc1)[C@@H](O)CN1CCN(Cc2ccccc2)CC1)c1ccc(N2CCOCC2)cc1 | 28.4 | 0.21 | 317 | 1450 | 3.93 | 3.48 | 0.86 | Non-Toxic | MST (Plasmodium berghei [11]): 15 days; Activity (Plasmodium berghei [12]): 50%; Activity (Plasmodium falciparum [13]): Active; Activity (Plasmodium falciparum [9]): Active; Activity (Plasmodium falciparum [10]): Active; Activity (Plasmodium falciparum [14]): Active
CN1CCN(Cc2ccc(C(=O)N[C@@H](Cc3ccccc3)[C@@H](O)CN3CCN(Cc4ccccc4)CC3)cc2)CC1 | 38.6 | 0.97 | 860 | 887 | – | – | – | – | Ki [15]: 0.91 µM
C[C@H]1[C@H](OC(=O)CCC(=O)O)O[C@@H]2O[C@@]3(C)CC[C@H]4[C@H](C)CC[C@@H]1[C@@]24OO3 [ARTESUNATE] | – | – | – | – | – | – | – | – | MST (Plasmodium berghei [16]): 24 days
Cc1cnc(C(=O)N[C@@H](Cc2ccccc2)[C@@H](O)CN2CCN(Cc3ccccc3)CC2)cn1 | 8.79 | 1.22 | 285 | 232 | 0.65 | 4.28 | 0.79 | Non-Toxic | –

Further lines, with some results ahead:

inhibition (Plasmodium falciparum [2]) [%] | IC50 (Plasmodium falciparum [3]) [µM] | Compound | CC50 at 48 h [1] [µM] | selectivity ratio [4] | Ratio IC50 (Plasmodium falciparum [6]) | Ratio (Plasmodium falciparum [7]) | IC50 (Plasmodium falciparum [8]) [µM] | Activity (Erythrocyte) | also measured
21.5 | 0.51 | O=C(CCc1ccc(Br)cc1)N[C@@H](Cc1ccccc1)[C@@H](O)CN1CCN(Cc2ccccc2)CC1 | 129 | 252 | – | – | – | – | IC50 (Plasmodium berghei [5]): 3.97 µM
24.5 | 0.2 | Cc1ccc(OCC(=O)N[C@@H](Cc2ccccc2)[C@@H](O)CN2CCN(Cc3ccccc3)CC2)cc1 | 200 | 1000 | – | – | – | – | –
13.7 | 1.1 | O=C(Cc1cccc(C(F)(F)F)c1)N[C@@H](Cc1ccccc1)[C@@H](O)CN1CCN(Cc2ccccc2)CC1 | 990 | 900 | – | – | – | – | –
6.85 | > 5 | O=C(Cc1ccccc1)N[C@@H](Cc1ccccc1)[C@@H](O)CN1CCN(Cc2ccccc2)CC1 | 305 | < 61 | – | – | – | – | –
